# In the supplement of paper PMC10307832:
# Experiments:
# Assay in all cases: relative viability (nuclei count vs DMSO), 5 days (fraction); higher = more cells survive
# [1] = system: NCI-H1666
# Method in brief: (§1)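 Relative viability is defined as nuclei in treated wells over nuclei in vehicle wells. Duplicate plates were run and medians reported. Lung cancer cell lines in 1536-well plates were dosed by pin tool one day after seeding, with one drug or with a fixed anchor-drug dose plus five library-drug doses (not always all listed) in √10 steps, and nuclei were counted after 5 days.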
# [2] = system: NCI-H727
# Method in brief: as §1
# [3] = system: NCI-H1650
# Method in brief: as §1
# [4] = system: HARA
# Method in brief: as §1
# [5] = system: BEN
# Method in brief: as §1
# [6] = system: NCI-H2170
# Method in brief: as §1
# [7] = system: COR-L 105
# Method in brief: as §1
# [8] = system: NCI-H2009
# Method in brief: as §1
# [9] = system: EKVX
# Method in brief: as §1
# [10] = system: NCI-H661
# Method in brief: as §1
# [11] = system: ABC-1
# Method in brief: as §1
# [12] = system: NCI-H441
# Method in brief: as §1
# [13] = system: NCI-H460
# Method in brief: as §1
# [14] = system: LOU-NH91
# Method in brief: as §1
# [15] = system: SW 900
# Method in brief: as §1
# [16] = system: NCI-H1437
# Method in brief: as §1
# [17] = system: HCC-366
# Method in brief: as §1
# [18] = system: PC-14
# Method in brief: as §1
# [19] = system: 201T
# Method in brief: as §1
# [20] = system: LK-2
# Method in brief: as §1
# [21] = system: CAL-12T
# Method in brief: as §1
# [22] = system: NCI-H3122
# Method in brief: as §1
smiles,measurement,setting,value
Cc1sc2c(c1C)C(c1ccc(Cl)cc1)=N[C@@H](CC(=O)OC(C)(C)C)c1nnc(C)n1-2 [JQ1] + COc1cc2c(Oc3ccc(NC(=O)C4(C(=O)Nc5ccc(F)cc5)CC4)cc3F)ccnc2cc1OCCCN1CCOCC1 [Foretinib] (partner 0.25 µM),relative viability,[1]; first compound 0.04 µM,0.855
same,relative viability,[1]; first compound 0.1265 µM,0.924
same,relative viability,[1]; first compound 0.4 µM,0.818
same,relative viability,[1]; first compound 1.265 µM,0.634
same,relative viability,[1]; first compound 4 µM,0.653
same,relative viability,[2]; first compound 0.04 µM,0.841
same,relative viability,[2]; first compound 0.1265 µM,0.864
same,relative viability,[2]; first compound 0.4 µM,0.537
same,relative viability,[2]; first compound 1.265 µM,0.336
same,relative viability,[2]; first compound 4 µM,0.438
same,relative viability,[3]; first compound 0.04 µM,0.894
same,relative viability,[3]; first compound 0.1265 µM,0.656
same,relative viability,[3]; first compound 0.4 µM,0.568
same,relative viability,[3]; first compound 1.265 µM,0.26
same,relative viability,[3]; first compound 4 µM,0.161
same,relative viability,[4]; first compound 0.04 µM,0.89
same,relative viability,[4]; first compound 0.1265 µM,0.647
same,relative viability,[4]; first compound 0.4 µM,0.572
same,relative viability,[4]; first compound 1.265 µM,0.343
same,relative viability,[4]; first compound 4 µM,0.227
same,relative viability,[5]; first compound 0.04 µM,0.482
same,relative viability,[5]; first compound 0.1265 µM,0.529
same,relative viability,[5]; first compound 0.4 µM,0.495
same,relative viability,[5]; first compound 1.265 µM,0.327
same,relative viability,[5]; first compound 4 µM,0.262
same,relative viability,[6]; first compound 0.04 µM,1.03
same,relative viability,[6]; first compound 0.1265 µM,0.928
same,relative viability,[6]; first compound 0.4 µM,0.837
same,relative viability,[6]; first compound 1.265 µM,0.762
same,relative viability,[6]; first compound 4 µM,0.626
same,relative viability,[7]; first compound 0.04 µM,0.794
same,relative viability,[7]; first compound 0.1265 µM,0.604
same,relative viability,[7]; first compound 0.4 µM,0.656
same,relative viability,[7]; first compound 1.265 µM,0.219
same,relative viability,[7]; first compound 4 µM,0.272
same,relative viability,[8]; first compound 0.04 µM,1.06
same,relative viability,[8]; first compound 0.1265 µM,0.801
same,relative viability,[8]; first compound 0.4 µM,0.786
same,relative viability,[8]; first compound 1.265 µM,0.413
same,relative viability,[8]; first compound 4 µM,0.352
same,relative viability,[9]; first compound 0.04 µM,0.881
same,relative viability,[9]; first compound 0.1265 µM,0.448
same,relative viability,[9]; first compound 0.4 µM,0.787
same,relative viability,[9]; first compound 1.265 µM,0.655
same,relative viability,[9]; first compound 4 µM,0.512
same,relative viability,[10]; first compound 0.04 µM,1.04
same,relative viability,[10]; first compound 0.1265 µM,0.945
same,relative viability,[10]; first compound 0.4 µM,1.03
same,relative viability,[10]; first compound 1.265 µM,0.7
same,relative viability,[10]; first compound 4 µM,0.668
same,relative viability,[11]; first compound 0.04 µM,0.916
same,relative viability,[11]; first compound 0.1265 µM,0.859
same,relative viability,[11]; first compound 0.4 µM,0.89
same,relative viability,[11]; first compound 1.265 µM,0.395
same,relative viability,[11]; first compound 4 µM,0.399
same,relative viability,[12]; first compound 0.04 µM,1.08
same,relative viability,[12]; first compound 0.1265 µM,0.981
same,relative viability,[12]; first compound 0.4 µM,0.842
same,relative viability,[12]; first compound 1.265 µM,0.832
same,relative viability,[12]; first compound 4 µM,0.57
same,relative viability,[13]; first compound 0.04 µM,0.901
same,relative viability,[13]; first compound 0.1265 µM,0.932
same,relative viability,[13]; first compound 0.4 µM,0.628
same,relative viability,[13]; first compound 1.265 µM,0.12
same,relative viability,[13]; first compound 4 µM,0.112
same,relative viability,[14]; first compound 0.04 µM,0.944
same,relative viability,[14]; first compound 0.1265 µM,0.777
same,relative viability,[14]; first compound 0.4 µM,0.618
same,relative viability,[14]; first compound 1.265 µM,0.625
same,relative viability,[14]; first compound 4 µM,0.482
same,relative viability,[15]; first compound 0.04 µM,0.699
same,relative viability,[15]; first compound 0.1265 µM,1.06
same,relative viability,[15]; first compound 0.4 µM,0.377
same,relative viability,[15]; first compound 1.265 µM,0.224
same,relative viability,[15]; first compound 4 µM,0.188
same,relative viability,[16]; first compound 0.04 µM,1.11
same,relative viability,[16]; first compound 0.1265 µM,1.23
same,relative viability,[16]; first compound 0.4 µM,1.03
same,relative viability,[16]; first compound 1.265 µM,0.464
same,relative viability,[16]; first compound 4 µM,0.384
same,relative viability,[17]; first compound 0.04 µM,0.994
same,relative viability,[17]; first compound 0.4 µM,0.827
same,relative viability,[17]; first compound 1.265 µM,0.359
same,relative viability,[17]; first compound 4 µM,0.266
same,relative viability,[18]; first compound 0.04 µM,0.906
same,relative viability,[18]; first compound 0.1265 µM,0.645
same,relative viability,[18]; first compound 0.4 µM,0.625
same,relative viability,[18]; first compound 1.265 µM,0.582
same,relative viability,[18]; first compound 4 µM,0.477
same,relative viability,[19]; first compound 0.04 µM,1.02
same,relative viability,[19]; first compound 0.1265 µM,0.704
same,relative viability,[19]; first compound 0.4 µM,0.514
same,relative viability,[19]; first compound 1.265 µM,0.343
same,relative viability,[19]; first compound 4 µM,0.215
same,relative viability,[20]; first compound 0.04 µM,1.21
same,relative viability,[20]; first compound 0.1265 µM,1.04
same,relative viability,[20]; first compound 0.4 µM,0.325
same,relative viability,[20]; first compound 1.265 µM,0.226
same,relative viability,[20]; first compound 4 µM,0.221
same,relative viability,[21]; first compound 0.04 µM,1.16
same,relative viability,[21]; first compound 0.1265 µM,0.747
same,relative viability,[21]; first compound 0.4 µM,0.858
same,relative viability,[21]; first compound 1.265 µM,0.351
same,relative viability,[21]; first compound 4 µM,0.307
same,relative viability,[22]; first compound 0.04 µM,1.04
same,relative viability,[22]; first compound 0.1265 µM,0.814
same,relative viability,[22]; first compound 0.4 µM,0.766
same,relative viability,[22]; first compound 1.265 µM,0.698
same,relative viability,[22]; first compound 4 µM,0.532
